Columns and labels:
[1] = target: T1, melibiose permease MelBSt (WT) (Salmonella enterica, UniProt P30878); assay: ITC, […] NaCl, […] °C; [3H]raffinose transport in cells; assay type: binding; parameters: gene melB; WT MelBSt/CHis10
[2] = target: T1, melibiose permease MelBSt (WT); assay: ITC, […] NaCl, […] °C; assay type: binding; parameters: gene melB; WT MelBSt/CHis10
[3] = target: T1, melibiose permease MelBSt (WT); assay: α-NPG downhill transport in E. coli DW2 cells (p-nitrophenol release); assay type: cell-based; parameters: gene melB; WT MelBSt/CHis10 expressed in E. coli DW2 cells

T1 sequence (P30878 whole entry): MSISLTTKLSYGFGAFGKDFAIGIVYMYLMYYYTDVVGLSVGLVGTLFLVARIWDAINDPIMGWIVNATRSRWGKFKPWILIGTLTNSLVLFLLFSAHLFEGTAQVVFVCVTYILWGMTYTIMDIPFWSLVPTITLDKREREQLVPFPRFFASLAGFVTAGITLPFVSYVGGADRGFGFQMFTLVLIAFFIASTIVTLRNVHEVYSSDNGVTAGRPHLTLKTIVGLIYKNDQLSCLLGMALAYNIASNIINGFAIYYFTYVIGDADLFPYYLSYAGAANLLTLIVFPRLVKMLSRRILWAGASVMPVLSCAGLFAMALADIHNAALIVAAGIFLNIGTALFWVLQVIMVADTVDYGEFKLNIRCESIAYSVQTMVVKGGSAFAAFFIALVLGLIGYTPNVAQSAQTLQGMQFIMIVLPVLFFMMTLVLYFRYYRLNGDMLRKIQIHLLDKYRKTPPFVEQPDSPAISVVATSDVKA

## OC[C@H]1O[C@H](OC[C@H]2O[C@H](O[C@]3(CO)O[C@H](CO)[C@@H](O)[C@@H]3O)[C@H](O)[C@@H](O)[C@@H]2O)[C@H](O)[C@@H](O)[C@H]1O [raffinose, Raffinose]
[1]
  Kd: 3790 ± 530 µM

## CO[C@H]1O[C@H](CO)[C@H](O)[C@H](O)[C@H]1O [α-MG, methyl α-D-galactoside]
[2]
  Kd: 880 ± 40 µM

## O=[N+]([O-])c1ccc(O[C@H]2O[C@H](CO)[C@H](O)[C@H](O)[C@H]2O)cc1 [α-NPG, p-Nitrophenyl α-D-galactoside]
[3]
  α-NPG downhill transport in E. coli DW2 cells (p-nitrophenol release): both WT MelBSt and D59C uniport mutant mediated the translocation of α-NPG
